Experimental data: US20030073218A1, “High affinity inhibitors for target validation and uses thereof” (Princeton University, priority 1999, published 2003)

Key:
[1] = target: T1, I338G v-Src (Rous sarcoma virus subgroup A, UniProt P00524, DEL77-225/I338G); experiment: biochemical; assay type: biochemical; settings: Table 3; read-out: IC50, 1338G v-Src
T1 construct: screened against the catalytic domain of the target kinase, I338G v-Src; made in house; host or cells: E. coli DH5a, pGEX-KT

[2] = target: T2, WT v-Src (Rous sarcoma virus subgroup A, UniProt P00524, DEL77-225); experiment: biochemical; assay type: biochemical; settings: Table 3, wild type; read-out: IC50, vSrc
T2 construct: mutant of the v-Src catalytic domain, (the XD4 fragment) were made as glutathione S-transferase (GST) fusion proteins; made in house; host or cells: E. coli (DH5a), pGEX-KT

[3] = system: panel of wild-type protein kinases (v-src, Fyn, c-Abl, CAMK IIα, CDK2); experiment: In vitro inhibition, panel of wild-type protein kinases; assay type: biochemical; settings: none inhibited below this concentration
[4] = system: I338G v-Src, T339G Fyn, T315A Abl, F89G CAMK IIα and F80G CDK2; experiment: In vitro inhibition, panel of engineered protein kinases; assay type: biochemical
[5] = target: T3, Cdc28-as1 (F88G Cdc28) (Saccharomyces cerevisiae, UniProt P00546, F88G); experiment: In vitro sensitivity of Cdc28 kinases to PP1 derivatives (Example 19); assay type: biochemical; settings: read-out: IC50, engineered Cdc28
T3 construct: made in house
T3 sequence (P00546 whole entry F88G): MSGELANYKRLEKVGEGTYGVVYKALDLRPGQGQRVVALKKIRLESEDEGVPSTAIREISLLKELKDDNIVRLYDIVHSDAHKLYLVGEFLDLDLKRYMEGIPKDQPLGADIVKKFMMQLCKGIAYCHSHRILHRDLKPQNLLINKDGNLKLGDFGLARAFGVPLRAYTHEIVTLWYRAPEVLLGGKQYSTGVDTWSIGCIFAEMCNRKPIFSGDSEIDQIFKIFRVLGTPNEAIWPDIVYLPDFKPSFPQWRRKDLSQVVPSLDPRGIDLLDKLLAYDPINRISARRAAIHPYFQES
T3 sequence (P24869 whole entry, further chain): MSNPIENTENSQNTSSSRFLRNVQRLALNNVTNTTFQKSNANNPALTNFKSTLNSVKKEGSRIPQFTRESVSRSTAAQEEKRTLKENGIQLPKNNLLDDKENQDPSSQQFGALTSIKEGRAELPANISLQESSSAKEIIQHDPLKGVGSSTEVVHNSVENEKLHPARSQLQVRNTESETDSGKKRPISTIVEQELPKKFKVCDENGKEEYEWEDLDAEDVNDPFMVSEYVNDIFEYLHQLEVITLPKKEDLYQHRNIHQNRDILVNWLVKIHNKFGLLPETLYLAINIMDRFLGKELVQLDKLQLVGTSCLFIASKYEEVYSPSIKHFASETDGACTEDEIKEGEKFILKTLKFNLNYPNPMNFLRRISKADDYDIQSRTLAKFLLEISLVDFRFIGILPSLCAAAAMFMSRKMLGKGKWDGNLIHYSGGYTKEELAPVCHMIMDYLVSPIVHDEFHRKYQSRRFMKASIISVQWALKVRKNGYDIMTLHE

[6] = system: cdc28-as1 strain; experiment: Yeast growth; assay type: cell-based, Saccharomyces cerevisiae
Method: (§1) Yeast Plasmid and Strain Construction: Media and genetic and microbial techniques were essentially as described (148, 153). All strains were derivatives of W30-3 (ura3-a, leu2-3, 112, trpl-1, his3-11,15, ade2-1, can1-100, GAL+). All strains were grown at 23° C. unless otherwise noted. To create cdc28-as1, the CDC28 coding sequence and 400 bp of 5′-and 386 bp of 3′-flanking DNA was PCR-amplified from genomic DNA and ligated into pRS306 to make pJAU1. The F88G mutation was engineered by oligonucleotide-directed mutagenesis of pJAU1. The plasmid was integrated into the wild-type CDC28 locus following AflII digestion by a pop-in-pop-out strategy as described (148, 153).
as §1, with “To examine the function of Cdc28 in vivo, a yeast strain in which the wild-type copy of CDC28 was replaced by cdc28-as1 was constructed.” for “Yeast Plasmid and Strain Construction:”, “W303 (ura3-1,” for “W30-3 (ura3-a,”, “cdc28-as1 ,” for “cdc28-as1,”, “5′- and” for “5′-and”, “AfII” for “AflII”

[7] = system: wild-type strain (CDC28); experiment: Yeast growth; assay type: cell-based, Saccharomyces cerevisiae
Method: as §1
as §1, with “To examine the function of Cdc28 in vivo, a yeast strain in which the wild-type copy of CDC28 was replaced by cdc28-as1 was constructed.” for “Yeast Plasmid and Strain Construction:”, “W303 (ura3-1,” for “W30-3 (ura3-a,”, “cdc28-as1 ,” for “cdc28-as1,”, “5′- and” for “5′-and”, “AfII” for “AflII”

[8] = system: Fus3-as1 expressing yeast; experiment: Yeast mating assay for Fus3 function; assay type: cell-based, Saccharomyces cerevisiae; settings: 50 μM
[9] = system: wild-type Fus3 expressing yeast; experiment: Yeast mating assay for Fus3 function; assay type: cell-based, Saccharomyces cerevisiae; settings: all concentrations up to 50 μM
[10] = system: S. cerevisiae expressing wild-type Fus3, Fus3-as1, or no Fus3; experiment: Non-selective cytotoxicity control, mating cultures plated on YPD; assay type: cell-based, Saccharomyces cerevisiae; settings: any of the three strains
[11] = target: T4, Cdc28-as1 · MBP-Clb2 (Saccharomyces cerevisiae, UniProt P00546, F88G); experiment: 1-NM-PP1 IC50, Histone H1 kinase assay; assay type: biochemical; settings: 1 MM ATP
T4 construct: made in house; host or cells: Sf9 insect cells, baculovirus, co-infected with Cak1-HA3 (Cdc28-as1-His6); bacteria (MBP-Clb2)
T4 sequence (P00546 whole entry F88G): as the sequence (P00546 whole entry F88G) above
T4 sequence (P24869 whole entry, further chain): as the sequence (P24869 whole entry, further chain) above
Method: Phosphate incorporation was determined at each inhibitor concentration by scintillation counting.
Cdc28-as1 is highly sensitive to 1-NM-PP1 in vitro and is a slightly weakened kinase.

[12] = system: cdc28-as1 cells; experiment: DNA content (flow cytometry) and morphology of yeast cells; assay type: cell-based, Saccharomyces cerevisiae; settings: for cell cycle effect (G2/M DNA content, large hyperpolarized buds): asynchronous cells
Method: DNA flow cytometry: Approximately 1×10^7 cells for each sample were fixed in 70% ethanol, resuspended in 50 mM Tris-HCl pH 8.0, briefly sonicated, digested with 2mg/ml RNase for 2 hours at 37° C., and resuspended in 0.2 ml protease solution (5 mg/ml pepsin. 0.5% concentrated HCl ) and digested for 45 minutes at 37° C. DNA was stained with 1μM Sytox Green (Molecular Probes) in 50 mM Tris-HCl pH 7.5 and 20,000 cells from each sample were scanned with a FACScan FACS machine (Becton-Dickinson).
Thus, it appears possible to titrate the level of Cdc28-as1 activity in vivo, allowing the identification of cell cycle events that are differentially sensitive to decreases in the catalytic activity of Cdc28.
When cdc28-as1 cells were synchronized in G1 with the yeast mating pheromone, α-factor factor, and then released into fresh media containing 500 nM 1-NM-PP 1, initiation of budding and DNA synthesis were delayed about 30 to 60 minutes, while accumulation of the mitotic cyclin Clb2 was delayed 60 to 90 minutes. […] Thus, cells treated with low concentrations of the inhibitor are slightly delayed during progression through early stages of the cell cycle, but eventually arrest due to a failure to assemble a mitotic spindle and enter mitosis.
These cells eventually budded after 180 to 240 minutes and arrested with a IC DNA content, large hyperpolarized buds, a single DNA mass in the mother cell, and an interphase astral microtubule array.

[13] = system: cdc28-as1 strain lacking PCL1 and PCL2; experiment: Budding and DNA content after release from G1; assay type: cell-based, Saccharomyces cerevisiae; settings: G1 synchronized, released into 5,000 nM
Method: Pho85, a Cdk that is closely related to Cdc28, has been implicated in the initiation of budding in S. cerevisiae (128, 129). Therefore, the budding observed in cdc28-as1 cells released into 5,000 nM 1-NM-PP1 due to residual Cdc28-as1 activity or due to Pho85 activity was investigated. A cdc28-as1 strain lacking PCL1 and PCL2, which encode the two G1 activating cyclins of Pho85 were constructed. […] It was concluded that Pc11- and Pc12-associated Pho85 activity, and not residual Cdc28 activity, are responsible for the greatly delayed budding observed in cdc28-as1 cells treated with high concentrations of inhibitor.

[14] = system: cdc28-as1 cells; experiment: Genome-wide transcription, oligonucleotide DNA arrays; assay type: cell-based, Saccharomyces cerevisiae
Excerpt: (§2) Error bars represent standard errors of the means.
(§3) Changes were deemed significant if they were greater than or equal to 2-fold or if the transcript changed present/absent status (as indicated by Affymetrix software) in the following comparisons: for non-specific drug effects: CDC28+1-NM-PP1 vs. CDC28; for cdc28-as1 effects: cdc28-as1 vs. CDC28.

[15] = system: wild-type cells; experiment: as above; assay type: cell-based, Saccharomyces cerevisiae
Excerpt: as §2, §3

[16] = G1 synchronized with α-factor, released into 500 nM
[17] = G1 synchronized, released into 5,000 nM

## CC(C)(C)n1nc(Cc2cccc3ccccc23)c2c(N)ncnc21 [Compound 6h, 4-amino-1-(tert-butyl)-3-(1′-naphthylmethyl)pyrazolo[3,4-d]pyrimidine]
[1]
  IC50: 4.2 nM
[2]
  IC50: 28000 nM
[3]
  concentration at which wild-type kinases are inhibited: ≥ 1 µM
[4]
  inhibition of engineered kinases (in words): the most potent inhibitor of every engineered kinase tested
[4]; within a 3 fold range, read-out: IC50 for all of the glycine mutants
  IC50: < 10 nM
[5]
  IC50: 3.9 nM
[6]
  growth of yeast which express Cdc28-as1: completely ablated
  inhibitor concentration for complete growth arrest: above 500 nM
[6]; in vivo, read-out: inhibitor concentration at which growth is inhibited 50%
  IC50: 50 to 100 nM
[7]
  proliferation of wild-type cells: unaffected by the inhibitor except at very high concentrations
[7]; same concentrations
  growth of wild-type strains: had no effect on the growth of wild-type strains
[8]
  decrease of Fus3-as1 mediated mating: 85 fold
[9]
  mating efficiency: no decrease in mating efficiency
[10]
  cfu/mL on YPD plates (non-selective cytotoxicity): No significant decrease in cfu/mL on YPD plates
[11]
  IC50: ~3 nM
[12]; [16]
  delay of accumulation of the mitotic cyclin Clb2: 60 to 90 min
  delay of initiation of budding and DNA synthesis: 30 to 60 min
[12]; G1 synchronized, released into 500 nM
  terminal arrest phenotype: arrest with moderate Clb2 levels, highly hyperpolarized buds, and a G2M DNA content
[12]; [17]
  arrest phenotype: arrested with a IC DNA content and initially failed to bud
  time after which cells eventually budded: 180 to 240 min
[12]; 50 nM
  cell cycle effect (G2/M DNA content, large hyperpolarized buds): delay
[12]; 500 nM
  cell cycle effect (G2/M DNA content, large hyperpolarized buds): arrest
[12]; asynchronous cells, 5,000 nM
  cell cycle effect: non-uniform arrest that included unbudded GI cells as well as large-budded G2/M cells
[13]
  arrest phenotype: arrested with a 1C DNA content and never budded, even after 6 hours
[14]; 500 nM, 120 minutes
  G2/M transcription: causes a drop in G2/M transcription
[14]; 500 nM, two hours
  down-regulated transcripts that are cell cycle-regulated: 60 transcripts
  down-regulated transcripts with peak expression at G2/M: 32 transcripts
  number of genes with […] or greater decreases: 66 genes
  number of genes with […] or greater increases: 38 genes
[14]; two-hour drug exposure
  down-regulation of the Cln-Cdc28 inhibitor Far 1 transcript: 20 fold
[15]; 500 nM
  effects on wild-type cell physiology: has no significant effects on wild-type cell physiology
[15]; 500 nM, 30 minutes
  number of genes whose transcription changed greater than two-fold: 6 genes
  share of genes whose transcription changed greater than two-fold: 0.1%
[15]; 120 minutes
  number of genes changed: 3 genes
